# Columns and labels:
# T. b. brucei = assay: Acute T. b. brucei efficacy in mice; assay type: in vivo, Trypanosoma brucei brucei; details: 3 mg/kg bid po for 4 days
# Protocol: (citrate, fumarate and phosphate) (Figure 9). These alternative salt forms of compound 2 were prepared and formulated in the best vehicle determined by injection site tolerability analysis (0.3M sodium acetate buffer, Kolliphor EL, N-methyl pyrrolidone, 2-pyrrolidone, and 11% water suitable for injection). Rat IM pharmacokinetics was then carried out with each salt to determine the salt form to use for efficacy. None of these salt forms offered any improvement in rat IM pharmacokinetic profile over the free base in the tolerated vehicle (Figure S7).
# 3. In vivo efficacy studies
# The T. congolense (IL3000) and T. vivax (ILRAD V34) cell lines7, 8, both originating from Kenya, were used in the following in vivo mouse studies. For studies in cattle, either Trypanosoma congolense (savannah) KONT 2/133, 224) or T. vivax STIB 719 was used.
# 3.1 Mouse efficacy studies for T. brucei brucei.
# Mouse efficacy studies for T. brucei brucei were carried out as previously detailed.9 3.2 NMRI mouse efficacy studies for T. congolense and T. vivax.
# Mouse models of infections were carried out using standardized protocols. Briefly, 1 mL samples of cryopreserved T. congolense, or T. vivax-infected blood harvested directly from an infected mouse, were diluted with Hanks Balanced Salt Solution plus 20 mM glucose (HBSS+G) to 5 x 10^4 trypomastigotes/mL (5 x 105 for T. vivax). […]
# T. congolense = assay: Microcalorimetry of parasite growth; assay type: cell-based, Trypanosoma congolense
# Protocol: These observations offer confidence that rats can be used as a model animal in the drug development path going forward prior to studies in cattle. Exposure following IM injection in rats was sufficient to warrant progression to cattle efficacy studies, although the short half-life raised concerns that the required time above the EC99 blood concentration may not be sufficient for cure following a single IM dose at 10 mg/kg.
Compound,Acute T. b. brucei efficacy in mice (T. b. brucei),"Effect on parasites, microcalorimetry (T. congolense; 10 ng/mL)","Effect on parasites, microcalorimetry (T. congolense; 30 ng/mL)","Effect on parasites, microcalorimetry (T. congolense; 100 ng/mL)"
"CC(C)CS(=O)(=O)N[C@H]1CC[C@H](Nc2nc(N)c(C(=O)c3c(F)cccc3F)s2)CC1 [Compound 1, N-((trans)-4-((4-Amino-5-(2,6-difluorobenzoyl)thiazol-2-yl)amino)cyclohexyl)-2-methylpropane-1-sulfonamide]",Cures 3 mg/kg bid po for 4 days,,,
"CC(C)CS(=O)(=O)N[C@H]1CC[C@H](Nc2nc(N)c(C(=O)c3c(F)cc(CN(C)C)cc3F)s2)CC1 [Compound 2, N-(trans)-[4-[[4-Amino-5-[4-(dimethylaminomethyl)-2,6-difluoro-benzoyl]thiazol-2-yl]amino]cyclohexyl]-2-methyl-propane-1-sulfonamide]",,slowed parasite growth,rapid kill,rapid kill
